One series relates to HBV genotype C. Description: HBV infection of human primary hepatocytes. The series is classed as cell-based, hepatitis B virus. The conditions noted are these: 10 μM virus treatment; day 12 after infection; P < 0.0001 vs Ctn.
The next series relates to HepG2.2.15-derived HBV. As to the kind of experiment: HepG2.2.15-derived HBV infection of HepG2-NTCP cells, HBsAg in culture medium. The series is classed as cell-based, hepatitis B virus. The settings on record: 10 μM, HBsAg on Day 12 post-infection.
Another series concerns HepG2-NTCP cells. Description: Cell viability by WST-8 assay in HepG2-NTCP cells. The settings on record: 10 μM, 7 days, absorbance 450 nm. (Tetrazolium dyes change colour on reduction, which living cells bring about.)
The test system of series [1] is HepG2.2.15 cells. As to the kind of experiment: HBsAg production from HepG2.2.15 cells. The conditions noted are these: 10 μM, 7 days of culture. The series is classed as cell-based, hepatitis B virus.
Series [2] concerns HepG2.2.15 cells. The settings on record: 10 μM, 7 days of culture.
The test system of the next series is HBV. The conditions noted are these: patients; ref Bogomolov et al., 2016; cited from earlier work.

As to `CC[C@H](C)[C@H](NC(=O)[C@H](CCCCN)NC(=O)[C@H](CCC(=O)O)NC(=O)[C@H](CCCCN)NC(=O)[C@H](CO)NC(=O)[C@H](CCCCN)NC(=O)[C@H](CCCNC(=N)N)NC(=O)[C@H](Cc1ccccc1)NC(=O)[C@H](Cc1ccccc1)NC(=O)[C@H](CC(=O)O)NC(=O)CNC(=O)[C@H](CC(C)C)NC(=O)[C@@H](N)CC(C)C)C(=O)NCC(=O)N[C@@H](CCCCN)C(=O)N[C@@H](CCC(=O)O)C(=O)N[C@@H](Cc1ccccc1)C(=O)N[C@@H](CCCCN)C(=O)N[C@@H](CCCNC(=N)N)C(=O)N[C@H](C(=O)N[C@H](C(=O)N[C@@H](CCC(N)=O)C(=O)N[C@@H](CCCNC(=N)N)C(=O)N[C@H](C(=O)N[C@@H](CCCCN)C(=O)N[C@@H](CC(=O)O)C(=O)N[C@@H](Cc1ccccc1)C(=O)N[C@@H](CC(C)C)C(=O)N[C@@H](CCCNC(=N)N)C(=O)N[C@@H](CC(N)=O)C(=O)N[C@@H](CC(C)C)C(=O)N[C@H](C(=O)N1CCC[C@H]1C(=O)N[C@@H](CCCNC(=N)N)C(=O)N[C@H](C(=O)N[C@@H](CCC(=O)O)C(=O)N[C@@H](CO)C(=O)O)[C@@H](C)O)C(C)C)[C@@H](C)CC)C(C)C)[C@@H](C)CC` [LL-37], in the series with HBV genotype C, the “HBV DNA in the culture medium of HBV-infected human primary hepatocytes” value is reported as “significant reductions” and the “HBeAg level in HBV-infected human primary hepatocytes” value is reported as “significant reductions”. Further, in the series on HepG2.2.15-derived HBV (HepG2-NTCP cells treated 24 hours before infection), the “Effect on HBsAg level of pre-treatment of cells only” value is reported as “minimal”. In addition, the “Effect on HBsAg level of post-treatment of infected cells only” value in the series with HepG2.2.15-derived HBV (during 11 days of culture after washing) was “minimal”. Moreover, the “Cell viability, percentage of Ctn-treated cells” value in the series on HepG2-NTCP cells is recorded as 77.6 ± 6.9%. Besides, the “HBsAg level in the culture medium of HepG2.2.15 cells compared to Ctn-treated cells” value with HepG2.2.15 cells [1] is listed as “comparable”. In addition, the “Viability of treated HepG2.2.15 cells” value in the series on HepG2.2.15 cells [2] worked out at 88.6%.
As for myrcludex-B, in the series on HBV, the “Improvement in clinical conditions and HBV DNA and HBsAg levels” value is given as “limited improvement”.

(Values after article PMC10939774 (Antiviral research, 2024).)
